“Also recorded” adds a separate entry of the source.
Tested on: female 129S6/SvEv mice
Experiment: Forced swim test (FST), immobility time, after stress
[1] = Forced Swim Test Day 1, Dunnett test Sal vs. drug (0.075), 1 week prophylactic drug
[2] = Forced Swim Test Day 1, Dunnett test Sal vs. drug (0.1), 1 week prophylactic drug
[3] = Forced Swim Test Day 1, Dunnett test Sal vs. drug (0.3), 1 week prophylactic drug
[4] = Forced Swim Test Day 1, Dunnett test Sal vs. drug (2.5), 1 week prophylactic drug
[5] = Forced Swim Test Day 1, Dunnett test Sal vs. drug (10), 1 week prophylactic drug
[6] = Ovariectomized cohort, 1 week prophylactic drug, Forced Swim Test Day 1, OVX mice, K (10), (2R,6R)-HNK (0.025)
[7] = Ovariectomized cohort, 1 week prophylactic drug, Forced Swim Test Day 1, Sham mice, K (10), (2R,6R)-HNK (0.025)
[8] = Ovariectomized cohort, 1 week prophylactic drug, Forced Swim Test Day 1, Sham vs OVX, same drug, K (10), (2R,6R)-HNK (0.025)
[9] = Ovariectomized, E2/P4 replacement, 1 week prophylactic drug, Forced Swim Test Day 2, K (10), (2R,6R)-HNK (0.025), FIG. 5F
[10] = Ovariectomized, same drug, hormone Vehicle vs. E2/P4 replacement, 1 week prophylactic drug, Forced Swim Test Day 2, K (10), (2R,6R)-HNK (0.025), FIG. 5F
[11] = Sal vs. (2R,6R)-HNK (0.025), Fisher's PLSD, 1 week prophylactic drug, learned helplessness stress, Forced Swim Test Day 1
[12] = Sal vs. (2R,6R)-HNK (0.025), Fisher's PLSD, 3 day prophylactic drug/Forced Swim Test Day 1
[13] = Same drug, Sham vs. ovariectomized, 1 week prophylactic drug, Forced Swim Test Day 2, K (10), (2R,6R)-HNK (0.025), FIG. 5C
[14] = Sham-operated females, 1 week prophylactic drug, Forced Swim Test Day 2, K (10), (2R,6R)-HNK (0.025), FIG. 5C

N[C@@]1(c2ccccc2Cl)CCC[C@@H](O)C1=O [(2R,6R)-HNK, (2R,6R)-hydroxynorketamine]
p, Immobility Time (min 1-6) [1]: 0.2188 | p, Immobility Time (min 3) [1]: 0.9250 | p, Immobility Time (min 4) [1]: 0.9750 | p, Immobility Time (min 5) [1]: 0.8877 | p, Immobility Time (min 6) [1]: 0.9994 | p, Immobility Time Average (min 3-6) [1]: 0.9526 | p, Immobility Time (min 1) [2]: 0.9996 | p, Immobility Time (min 1-6) [2]: 0.0673 | p, Immobility Time (min 3) [2]: 0.4888 | p, Immobility Time (min 4) [2]: 0.3257 | p, Immobility Time (min 5) [2]: 0.2856 | p, Immobility Time (min 6) [2]: 0.9218 | p, Immobility Time Average (min 3-6) [2]: 0.3240 | p, Immobility Time (min 1) [3]: 0.0586 | p, Immobility Time (min 1-6) [3]: >0.9999 | p, Immobility Time (min 3) [3]: >0.9999 | p, Immobility Time (min 4) [3]: 0.7424 | p, Immobility Time (min 5) [3]: 0.3614 | p, Immobility Time (min 6) [3]: 0.9996 | p, Immobility Time Average (min 3-6) [3]: 0.9455 | * (significance), Immobility Time (min 1) [4]: ** (** p<0.01) | p, Immobility Time (min 1) [4]: 0.0026 | p, Immobility Time (min 1-6) [4]: 0.7127 | p, Immobility Time (min 3) [4]: 0.9998 | p, Immobility Time (min 4) [4]: 0.9999 | p, Immobility Time (min 5) [4]: 0.9867 | p, Immobility Time (min 6) [4]: 0.9994 | p, Immobility Time Average (min 3-6) [4]: 0.9997 | p, Immobility Time (min 1) [5]: 0.0528 | p, Immobility Time (min 1-6) [5]: 0.9943 | p, Immobility Time (min 3) [5]: 0.6584 | p, Immobility Time (min 4) [5]: 0.5947 | p, Immobility Time (min 5) [5]: 0.6743 | p, Immobility Time (min 6) [5]: 0.1601 | p, Immobility Time Average (min 3-6) [5]: 0.3035 | p, Immobility Time (min 1-6), OVX Sal vs OVX drug [6]: 0.2525 | p, Immobility Time Average (min 3-6), Fisher's PLSD, OVX Sal vs OVX drug [6]: 0.3199 | p, Immobility Time (min 1-6), Sham Sal vs Sham drug [7]: 0.7085 | p, Immobility Time Average (min 3-6), Fisher's PLSD, Sham Sal vs Sham drug [7]: 0.9957 | * (significance), Immobility Time (min 1-6), Sham drug vs OVX drug [8]: *** (*** p<0.0001) | * (significance), Immobility Time Average (min 3-6), Fisher's PLSD, Sham drug vs OVX drug [8]: *** (*** p<0.0001) | p, Immobility Time (min 1-6), Sham drug vs OVX drug [8]: <0.0001 | p, Immobility Time Average (min 3-6), Fisher's PLSD, Sham drug vs OVX drug [8]: 0.0001 | p, Fisher's PLSD, Immobility Time Average (min 3-6), OVX Sal vs. OVX drug (Ovariectomized females, 1 week prophylactic drug, Forced Swim Test Day 2, K (10), (2R,6R)-HNK (0.025), FIG. 5C): 0.9445 | p, Fisher's PLSD, Immobility Time Average (min 3-6), E2/P4 Sal vs. E2/P4 drug [9]: 0.0316 | significance (*), Fisher's PLSD, Immobility Time Average (min 3-6), E2/P4 Sal vs. E2/P4 drug [9]: * (* p<0.05) | p, Fisher's PLSD, Immobility Time Average (min 3-6), Vehicle Sal vs. Vehicle drug (Ovariectomized, hormone Vehicle, 1 week prophylactic drug, Forced Swim Test Day 2, K (10), (2R,6R)-HNK (0.025), FIG. 5F): 0.6287 | p, Fisher's PLSD, Immobility Time Average (min 3-6), Vehicle drug vs. E2/P4 drug [10]: 0.0013 | significance (*), Fisher's PLSD, Immobility Time Average (min 3-6), Vehicle drug vs. E2/P4 drug [10]: ** (** p<0.01) | *, Immobility Time (min 1) [11]: ** (** p<0.01) | *, Immobility Time (min 2) [11]: *** (*** p<0.0001) | *, Immobility Time (min 3) [11]: *** (*** p<0.0001) | *, Immobility Time (min 4) [11]: ** (** p<0.01) | *, Immobility Time (min 5) [11]: ** (** p<0.01) | *, Immobility Time (min 6) [11]: ** (** p<0.01) | *, Immobility Time Average (min 1-6) [11]: *** (*** p<0.0001) | p, Immobility Time (min 1) [11]: 0.0043 | p, Immobility Time (min 2) [11]: <0.0001 | p, Immobility Time (min 3) [11]: 0.0001 | p, Immobility Time (min 4) [11]: 0.0009 | p, Immobility Time (min 5) [11]: 0.0002 | p, Immobility Time (min 6) [11]: 0.0002 | p, Immobility Time Average (min 1-6) [11]: 0.0001 | *, Immobility Time (min 1) [12]: *** (*** p<0.0001) | *, Immobility Time (min 2) [12]: ** (** p<0.01) | *, Immobility Time (min 3) [12]: ** (** p<0.01) | *, Immobility Time (min 4) [12]: ** (** p<0.01) | *, Immobility Time (min 5) [12]: ** (** p<0.01) | *, Immobility Time (min 6) [12]: ** (** p<0.01) | *, Immobility Time Average (min 3-6) [12]: ** (** p<0.01) | p, Immobility Time (min 1) [12]: <0.0001 | p, Immobility Time (min 2) [12]: 0.0005 | p, Immobility Time (min 3) [12]: 0.0073 | p, Immobility Time (min 4) [12]: 0.0039 | p, Immobility Time (min 5) [12]: 0.0006 | p, Immobility Time (min 6) [12]: 0.0006 | p, Immobility Time Average (min 3-6) [12]: 0.0008 | p, Immobility Time (min 1) (Sal vs. (2R,6R)-HNK (0.025), Fisher's PLSD, Antidepressant drug/Forced Swim Test Day 2): 0.2184 | p, Immobility Time Average (min 3-6) (Sal vs. (2R,6R)-HNK (0.025), t-test, 24 hour prophylactic drug/Forced Swim Test Day 1): 0.5779 | p, Fisher's PLSD, Immobility Time Average (min 3-6), Sham drug vs. OVX drug [13]: 0.0476 | significance (*), Fisher's PLSD, Immobility Time Average (min 3-6), Sham drug vs. OVX drug [13]: * (* p<0.05) | p, Fisher's PLSD, Immobility Time Average (min 3-6), Sham Sal vs. Sham drug [14]: 0.0099 | significance (*), Fisher's PLSD, Immobility Time Average (min 3-6), Sham Sal vs. Sham drug [14]: ** (** p<0.01) | Immobility in the FST (Day 1 and Day 2) vs saline (drug administered 1 hour after 3-shock CFC stressor, female mice): did not reduce immobility levels; also recorded: Neither (R,S)-ketamine nor (2R,6R)-HNK significantly affected immobility time | Prophylactically effective dose in females (female mice, 1 week before stressor): 0.025 mg/kg | Immobility in the FST vs saline (ovariectomized mice with cyclic E2 and P4 replacement, drug 1 week before CFC): significantly less immobile compared to control saline mice; also recorded: significantly reduced immobility | Prophylactic efficacy against stress-induced depressive-like behavior (single injection 1 week before stressor, female mice): significantly reduced stress-induced depressive-like behavior; also recorded: significantly decreased stress-induced depressive-like behavior; also recorded: is prophylactic against depressive-like behavior; also recorded: prophylactic against stress-induced depressive-like behavior; also recorded: effective prophylactics against a variety of stressors; also recorded: protect against stress-induced depressive-like behavior
